Measured values published in the METLIN SMRT retention time set (Domingo-Almenara et al. 2019).

Assay: gradient 5% acetonitrile 3 min, to 50% in 2 min, to 85% in 15 min, held 3 min, 100 µL/min
Conditions: column: Zorbax Extend-C18 2.1 x 50 mm; eluents: water / acetonitrile, 0.1% formic acid
How it was run: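 Pure standards were run in mixtures of ~100 molecules by HPLC coupled to a quadrupole time-of-flight mass spectrometer. The column was a Zorbax Extend-C18 (2.1 × 50 mm, 1.8 μm) at 100 μL/min, with water and acetonitrile each containing 0.1% formic acid, in positive and negative ionization mode. Dead and dwell volumes were 40 μL and 900 μL. Retention time was taken from computationally picked adduct peaks, each manually inspected, with data collected over 3 months.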

RP-LC retention time [s] | Compound
946 | Cc1ccc(C)c(N2CCN(C(=O)c3c(C)sc4ccn(C)c(=O)c34)CC2)c1
676 | O=c1cc(Cn2nc3ccc(-c4ccc(Cl)cc4)nn3c2=O)nc2ccccn12
676 | COc1cc(NC(=O)N2CCN(c3cc(C)nc(N4CCCC4)n3)CC2)cc(OC)c1
899 | Cc1nnc2ccc(S(=O)(=O)N(Cc3ccccc3)c3cc(F)cc(F)c3)cn12
639 | Cc1cccc(-c2nc3ccccn3c2NC(=O)NC2CCCC2)c1
770 | O=C(CNC(=O)Cc1ccc(Cl)cc1)NCC(=O)N1CCCc2ccccc21
624 | Cn1c(=O)sc2cc(S(=O)(=O)N3CCC(C(=O)NCCc4nc5ccccc5[nH]4)CC3)ccc21
796 | CC(C)NC(=O)C1CCN(c2nc3ccc(-c4ccsc4)nc3s2)CC1
764 | COc1cccc(-c2ccc(=O)n(CCCC(=O)Nc3cccc4nsnc34)n2)c1
664 | Cn1c(CN2CCN(C(=O)c3ccco3)CC2)nc2cc(NC(=O)C3CCCCC3)ccc21
638 | CN(C)C(=O)c1ccc2c(c1)nnn2CCNC(=O)Nc1ccccc1F
892 | COc1ccc(NC(=O)CSc2nc3c(cc2C#N)C(=O)CC(C)(C)C3)c(OC)c1
681 | Cc1ccc(CC(=O)N2CCc3c(c(C(=O)N4CCCC(C(=O)NC5CC5)C4)nn3C)C2)cc1 (centres undefined)
887 | Cc1ccc(N(Cc2nc3nc(C)c(Cl)c(C)n3n2)C(=O)c2ccco2)cc1
741 | O=C(CC1CCN(C(=O)NCc2ccccc2)CC1)NCc1cccc(F)c1
903 | O=C(O)/C=C\C(=O)Nc1ccc(-c2ccccc2)cc1
736 | Cc1ccc(S(=O)(=O)N2CCC(n3cnnc3C)CC2)cc1Cl
814 | CC(C)(C)C(=O)Nc1nc(CC(=O)NCCC2=CCCCC2)cs1
743 | COc1ccc(-c2nc3cc(C)ccn3c2Nc2ccccc2C)cc1
939 | COc1ccc(NC(=O)c2cn(-c3cc(N4CCCCC4C)ncn3)cn2)cc1OC (centres undefined)
790 | CC1CCC(NC(=O)c2cn(-c3ccc(NC(=O)C4CC4)cn3)cn2)CC1 (centres undefined)
943 | Fc1ccc(Cc2noc(-c3nc(-c4ccncc4)no3)n2)cc1
930 | CCCCCNC(=O)C1CCN(c2ccc(Sc3cc(C)ccc3C)nn2)CC1

RP-LC retention time [s] | Compound
1020 | COCCn1c(SCc2nc(-c3ccc(OC)cc3)no2)nc2cc3c(cc2c1=O)OCO3
583 | COc1cccc(CN2CCC3(CC2)NCCc2c3[nH]c3ccccc23)c1
942 | Cc1ccc(S(=O)(=O)C(F)(F)F)cc1N1C(=O)c2ccccc2C1=O
682 | O=C(C1CC(=O)N(c2ccccc2)C1)N1CCC2(CC1)OCCS2 (centres undefined)
955 | COc1cccc(CN2C(=O)CSc3c(c4ccccc4n3C)C2C(=O)NCCCOC(C)C)c1 (centres undefined)
796 | O=C(NC1CCCCC1)c1ccc2c(c1)nc1n2CCN(C2CCCCC2)C1=O
752 | COc1ccccc1C(=O)N1CCC2(CC1)NC(=O)c1cc(F)ccc1N2C
595 | COc1ccc(CC(=O)N2CCC(Nc3ncnc4c3CCC4)C2)cc1 (centres undefined)
640 | O=C(NCc1ccccc1)c1ccc2c(c1)Sc1ncccc1C(=O)N2C1CC1
654 | O=C(Nc1ccc(Cn2cncn2)cc1)c1ccccn1
912 | O=S(=O)(CCc1noc(-c2ccc3cc[nH]c3c2)n1)c1ccccc1
610 | Cn1c(=O)c2c(ncn2CC(=O)N2CCC(Cc3nc(C4CCOCC4)no3)CC2)n(C)c1=O
708 | CCCn1c(CCc2ccccc2NS(=O)(=O)CCC)nc2ccccc21
1020 | COc1cccc(-n2nnc(-c3nsc(Nc4ccc(OC)c(Cl)c4)n3)c2C)c1
755 | CCOC(=O)N1CCN(C(=O)C2CC2c2ccc(F)cc2)CC1 (centres undefined)
559 | CNc1cc(C(N)=O)c2cccc(Cl)c2n1
1070 | COc1cc(OC)cc(-c2nc(-c3nnn(-c4ccccc4)c3C)no2)c1
583 | O=C(c1ccc(N2C(=O)CCS2(=O)=O)cc1Cl)N1CCN(c2ccccn2)CC1
996 | CCN(CC)S(=O)(=O)c1ccc(NC(=O)N2CCCC(C(=O)Nc3cccc(Cl)c3)C2)s1 (centres undefined)
770 | Cc1ccc2nc(N3CCNCC3)c(-c3noc(-c4ccccc4)n3)cc2c1
658 | CCN(CC)S(=O)(=O)c1ccc2c(c1)N(CC(=O)N1CCN(C)CC1)C(=O)C1CCCCN21 (centres undefined)
777 | O=C(NC1CCN(c2cc(-c3ccc(Cl)cc3)[nH]n2)C1)c1ccccc1F (centres undefined)

The remaining lines, values behind:

Compound | RP-LC retention time [s]
O=C(NCc1ccc(F)cc1)C1CCCN(c2ncnc3c2oc2ccccc23)C1 (centres undefined) | 746
COC(=O)c1c(C)[nH]c(C(=O)N2CCC(CC(=O)N3CCN(C4CCCCC4)CC3)CC2)c1C | 594
CCn1cc(CCN2CCN(C(=O)c3ccc(Br)cc3)CC2)c2cccnc21 | 629
Cc1cccc(NC(=O)Nc2ccc(C)n(CC(=O)O)c2=O)c1 | 721
N#Cc1cccc(C(=O)Nc2cnn(-c3ncc(N4CCCC4)cn3)c2)c1 | 777
O=C(NC1CCN(c2cc(-c3ccc(F)cc3)[nH]n2)C1)c1cccc(OC(F)(F)F)c1 (centres undefined) | 840
CCCNC(=O)Cc1cn2cc(Br)ccc2n1 | 570
COc1ccc(-c2cn3ccn(-c4ccc(OC)c(OC)c4)c(=O)c3n2)cc1 | 732
CCN1C(=O)C2(CCN(S(=O)(=O)c3cccc(C(F)(F)F)c3)CC2)c2ccccc21 | 1120
O=C(c1ccco1)N1CCC(c2nc(C3CC3)n[nH]2)CC1 | 521
COc1ccc(-c2nnc(-c3cc(S(=O)(=O)NC(C)C)ccc3Cl)o2)cc1 | 967
COc1cc2c(cc1OC)CN(C(=O)c1cc(-c3cccs3)[nH]n1)CC2 | 703
COc1ccccc1N1CCN(Cc2nc(-c3ccccc3)no2)CC1 | 798
COc1ccc(C2(C(=O)N3CCC(Cc4ccc(COc5ccncc5)cc4)CC3)CC2)cc1 | 750
Cn1nccc1-c1csc(S(=O)(=O)NC2CCCCC2)c1 | 877
CC(C)C(=O)Nc1cccn2nc(C(C)C)nc12 | 780
CN1C(=O)C(CC(=O)Nc2cccnc2)=C2CCCCC21 (centres undefined) | 564
Cc1ccc(-n2nc(C(=O)N3CCN(c4ncccn4)CC3)c3ncn(C)c(=O)c32)cc1 | 726
Cc1nn(C)cc1CN(C)C(=O)c1cc2c(=O)n(CC(C)C)c3ccccc3n2n1 | 808
O=C(NCc1ccc(F)c(Cl)c1)C1CCN(c2ncnc3c2oc2ccccc23)CC1 | 781
COCc1nnc2n1CCC(NC(=O)c1ccoc1)CC2 (centres undefined) | 561
O=c1c2c(nc(SCc3ccccn3)n1CCc1ccccc1)CCS2 | 657

Compound | RP-LC retention time [s]
Cc1ccc(NS(=O)(=O)c2ccc3c(c2)CCCC(=O)N3)cc1C | 756
COCCNc1c(-c2cccc(F)c2)nc2sc(C(N)=O)c(C)n12 | 696
CCc1nn2c(CNC(=O)c3ccccc3Br)c(-c3ccccc3)nc2s1 | 903
CSc1cccc(NC(=O)C2CCN(c3nccc(C)n3)CC2)c1 | 700
CCOC(=O)c1c(C)oc2nc(C)nc(N3CCN(c4ccc(C(C)=O)cc4)CC3)c12 | 642
COc1ccc2c(c1)C1(CCN(S(=O)(=O)c3ccc(C#N)cc3)C1)C(=O)N2C (centres undefined) | 880
Cc1ccc(N2CCC(NC(=O)C3CCC3)C2=O)cc1C (centres undefined) | 762
O=C(N[C@H]1C[C@@H]2C[C@H]1N(C(=O)c1cccc(Cl)c1)C2)c1ccccc1 | 748
COCCCNC(=O)Cn1ncc2c(C)n(Cc3ccc(Cl)cc3)c(C)c2c1=O | 775
Cc1ccc(NS(=O)(=O)c2cc3n(c2)CCN(C)C3=O)cc1 | 700
CCc1ccccc1NC(=O)N1C[C@H](c2nc(-c3ccccc3)no2)[C@@H](C)C1 | 1040
COc1ncccc1CNC(=O)CCc1c(C)nn(C)c1C | 580
COc1ccccc1CNC(=O)Cc1csc(NC(=O)Nc2cccc(Cl)c2)n1 | 837
COc1ccccc1N1C(=O)CC(N2CCC(C(N)=O)CC2)C1=O (centres undefined) | 547
O=C(NC1CC1)[C@@H]1C[C@H](Oc2ccccc2)CN1C(=O)c1ccoc1 | 709
CCc1ccc(S(=O)(=O)c2cnc(N3CCCC(C)C3)nc2N)cc1 (centres undefined) | 1150
O=C(Cc1nnc(-c2ccc3ncccc3c2)o1)NCCc1ccccc1 | 702
Cc1ccc(-n2ncc3c(=O)n(Cc4nc(-c5ccc(OC(C)C)cc5)no4)cnc32)cc1 | 1200
COc1ccc(OC)c(CNC(=O)Cc2nnc(-c3ccc4ncccc4c3)o2)c1 | 688
CN1c2cc(F)ccc2C(=O)NC12CCN(C(=O)Cc1ccc(Cl)cc1)CC2 | 919
CC(C)(C)C(=O)NC1CCN(C(=O)c2ccc(F)cc2)C1 (centres undefined) | 688
CCc1nn(CC)c(=O)c2cc(S(=O)(=O)NCc3ccc(Cl)cc3)cn12 | 989
